From US5232685A, “Nonionic x-ray contrast medium with high iodine content” (Schering Aktiengesellschaft, priority 1989, dated 1993) come the findings set out here.

SMILES strings stand for the structures.

Data set [1] is described as follows: Viscosity of contrast medium solutions. Format: physicochemical. The settings on record: for Viscosity: 37° C.
The test system of the next data set is mouse. As to the kind of experiment: LD50 mouse i.v. The data set is classed as in vivo.
Data set [2] is described as follows: Osmolality of contrast medium solutions. Format: physicochemical.
The next data set in a line: Chemical stability. The data set is classed as physicochemical. The settings on record: in words.
The nature of the next data set: Renal excretion. Format: in vivo. The note with it: in words.
Another data set in a line: Water solubility. Format: physicochemical. The note with it: in words.

`CN(C(=O)CO)c1c(I)c(C(=O)NCC(O)CO)c(I)c(C(=O)NCC(O)CO)c1I` (stereo not shown) [Iomeprol] displayed a Viscosity in data set [1] (370 mg I/ml) of 8.6 cP. Also, the LD50 with mouse is on record as 14 g I/kg. The Osmolality in data set [2] (370 mg I/ml (37° C.)) is 680 mosm/kg H2 O. Also, the “Greatest improvement of osmolality within the previously known five contrast media” value in data set [2] (Iopamidol/Iomeprol (Iomeprol versus Iopamidol)) came to 18.1%.

In data set [1] (370 mg I/ml), `COCC(=O)Nc1c(I)c(C(=O)NCC(O)CO)c(I)c(C(=O)N(C)CC(O)CO)c1I` (stereo not shown) [Iopromide] had a Viscosity of 9.5 cP. The compound further returned an LD50 with mouse of 15 g I/kg. Besides, the Osmolality in data set [2] (370 mg I/ml (37° C.)) is given as 770 mosm/kg H2 O.

With `CC(=O)N(CC(O)CO)c1c(I)c(C(=O)NCCO)c(I)c(C(=O)NCC(O)CO)c1I` (stereo not shown) [Ioxilan], the Viscosity in data set [1] (350 mg I/ml (*)) is given as 8.1 cP. For the same compound, the “Greatest improvement of viscosity within the previously known five contrast media” value in data set [1] (Iohexol/Ioxilan (Ioxilan versus Iohexol)) came out at 22.9%. Also, the LD50 in the data set on mouse stood at 15 g I/kg. For the same compound, the Osmolality in data set [2] (350 mg I/ml (*) (37° C.)) stood at 700 mosm/kg H2 O.

Turning to `CC(=O)N(CC(O)CO)c1c(I)c(C(=O)NCC(O)CO)c(I)c(C(=O)NCC(O)CO)c1I` (stereo not shown) [Iohexol], the Viscosity in data set [1] (350 mg I/ml (*)) is recorded as 10.5 cP. The same compound gave an LD50 in the data set with mouse of 15 g I/kg. This compound gave an Osmolality in data set [2] (350 mg I/ml (*) (37° C.)) of 820 mosm/kg H2 O.

In the case of `CN(CC(O)CO)C(=O)c1c(I)c(NC(=O)CO)c(I)c(C(=O)NCCO)c1I` (stereo not shown) [Example 1, 5-Hydroxyacetamido-2,4,6-triido-isophthalic acid-(2,3-dihydroxy-N-methyl-propyl)-(2-hydroxy-ethyl)-diamide], the Viscosity in data set [1] (370 mg I/ml) is on record as 6.6 cP. Moreover, the “Improvement of viscosity value” in data set [1] (in comparison with iopromide) was found to be 30.5%. This compound returned an LD50 in the data set on mouse of 18 g I/kg. For the same compound, the Chemical stability result in the data set “Chemical stability” was “good chemical stability”. Moreover, the Renal excretion result in “Renal excretion” was “very quick, selective renal excretion”. The Water solubility result in “Water solubility” is recorded as “very water-soluble”. Further, the Osmolality in data set [2] (370 mg I/ml (37° C.)) was 590 mosm/kg H2 O. The “Improvement of osmolality value” in data set [2] (in comparison with iopromide) worked out at 23.4%.

The compound `C[C@H](O)C(=O)Nc1c(I)c(C(=O)NC(CO)CO)c(I)c(C(=O)NC(CO)CO)c1I` [Iopamidol] returned a Viscosity in data set [1] (370 mg I/ml) of 9.4 cP. In the data set on mouse, this compound registered an LD50 of 15 g I/kg. This compound gave an Osmolality in data set [2] (370 mg I/ml (37° C.)) of 830 mosm/kg H2 O.
